Assay results: patent publication US5776720A, “Assay reagent” (priority 1995, dated 1998)

Legend:
Assay type in all cases: cell-based, human
Set-up in all cases: unit not given here
Details in all cases: normal donors
[1] = system: lymphocytes; assay: Normal leukocyte enzyme activity (Table 3A), lymphocytes
From the text: (§1) The measured fluorescence intensity can be converted from mean channel fluorescence (in peak or integrated mode) to MESF (molecules of equivalent soluble fluorochrome, Flow Cytometry Standards Corp. , San Juan, Puerto Rico) or International Units of hydrolysis per cell. A normal range of enzyme activity is established by assaying males and females in sufficient quantity to characterize the population levels statistically.
(§2) A normal in house adult donor pool was drawn, recording sex and determining that no known disease state was present at the time of sample draw. Criteria for rejecting samples included patients under medication, patients with infection or inflammation of any type, colds and flu as well as any known medical illness such as cancer, heart ailment and high blood pressure. A donor list of 75 patients has been developed and a mean and 2 sd range established. A subgroup of "super normals" was developed from this list by examining the 75 patients to determine which group falls closest to the mean for all enzymes in all cell types tested. These patients were used as the "wellness index" or best group of "normalcy" patients. If a study required the use of children or newborns then this same format was used to develop a data base for these age groups.

[2] = system: granulocytes; assay: Normal leukocyte enzyme activity (Table 3A), granulocytes
From the text: as §1, §2

[3] = system: monocytes; assay: Normal leukocyte enzyme activity (Table 3A), monocytes
From the text: as §1, §2

Structure (SMILES)	NORMAL LEUKOCYTE ENZYME ACTIVITY, LYMPHS Mean [1]	NORMAL LEUKOCYTE ENZYME ACTIVITY, GRANS Mean [2]	NORMAL LEUKOCYTE ENZYME ACTIVITY, MONOS Mean [3]
CCCCCCCCCCCCCCCC(=O)Oc1ccc2c(c1)Oc1cc(OC(=O)CCCCCCCCCCCCCCC)ccc1C21OC(=O)c2ccccc21 [DIPAL 7.5, FL(palmitate)2]	0.14	0.14	0.30
CCC(=O)Oc1ccc2c(c1)Oc1cc(OC(=O)CC)ccc1C21OC(=O)c2ccccc21 [DIPRO 6.5, FL(propionate)2]	86.11	349.18	441.65
CCC(=O)Oc1ccc2c(c1)Oc1cc(OC(=O)CC)ccc1C21OC(=O)c2ccccc21 [DIPRO 7.6, FL(propionate)2]	96.34	429.17	–
CCCCC(=O)Oc1ccc2c(c1)Oc1cc(OC(=O)CCCC)ccc1C21OC(=O)c2ccccc21 [DIVAL 6.5, FL(valerate)2]	33.13	92.81	184.51
O=C1OC2(c3ccc(OC4O[C@H](CO)[C@H](O)[C@H](O)[C@H]4O)cc3Oc3cc(OC4O[C@H](CO)[C@H](O)[C@H](O)[C@H]4O)ccc32)c2ccccc21 (stereo partly drawn) [GALAC, (D-galactose)2 fluorescein]	0.38	1.58	5.94
CC(C)C[C@H](NC(=O)CN)C(=O)Nc1ccc2c(c1)Oc1cc(NC(=O)[C@H](CC(C)C)NC(=O)CN)ccc1C21OC(=O)c2ccccc21 [GL, (H Gly--Leu)2 Rho 110.2FTA]	9.42	29.16	41.78
C[C@H](NC(=O)[C@@H](N)CCCCN)C(=O)Nc1ccc2c(c1)Oc1cc(NC(=O)[C@H](C)NC(=O)[C@@H](N)CCCCN)ccc1C21OC(=O)c2ccccc21 [KA, (Lys-Ala)2 Rho 110]	11.47	29.15	39.35
C[C@H](NC(=O)[C@@H](N)CCCCN)C(=O)Nc1ccc2c(c1)Oc1cc(NC(=O)[C@H](C)NC(=O)[C@@H](N)CCCCN)ccc1C21OC(=O)c2ccccc21 [KA--M, (Lys-Ala)2 Rho 110]	0.55	1.74	8.74
CC(C)C[C@H](NC(=O)[C@@H](N)CC(C)C)C(=O)N[C@@H](CCCNC(=N)N)C(=O)Nc1ccc2c(c1)Oc1cc(NC(=O)[C@H](CCCNC(=N)N)NC(=O)[C@H](CC(C)C)NC(=O)[C@@H](N)CC(C)C)ccc1C21OC(=O)c2ccccc21 (stereo partly shown) [LLR, (H--L Leu--Leu--Arg)2 Rho 110.4TFA]	4.09	9.46	54.32
O=C1OC2(c3ccc(NC(=O)[C@@H]4CCCN4)cc3Oc3cc(NC(=O)[C@@H]4CCCN4)ccc32)c2ccccc21 [PRO, (H--L--Pro)2 --Rho 110.2TFA]	1.70	9.19	6.83
NC(=O)CC[C@H](N)C(=O)N[C@@H](CO)C(=O)Nc1ccc2c(c1)Oc1cc(NC(=O)[C@H](CO)NC(=O)[C@@H](N)CCC(N)=O)ccc1C21OC(=O)c2ccccc21 [QS, (H--L--Gln--Ser)2 Rho 110.2TFA]	1.70	4.67	10.66
N[C@@H](CO)C(=O)Nc1ccc2c(c1)Oc1cc(NC(=O)[C@@H](N)CO)ccc1C21OC(=O)c2ccccc21 [SER, (H--L--Ser)2 Rho 110.2TFA]	1.35	3.40	6.49
CC(C)[C@H](N)C(=O)N[C@@H](CCCCN)C(=O)Nc1ccc2c(c1)Oc1cc(NC(=O)[C@H](CCCCN)NC(=O)[C@@H](N)C(C)C)ccc1C21OC(=O)c2ccccc21 [VK, (Val-Lys)2 Rho 110]	1.87	–	20.38
CC(C)[C@H](N)C(=O)N[C@@H](CO)C(=O)Nc1ccc2c(c1)Oc1cc(NC(=O)[C@H](CO)NC(=O)[C@@H](N)C(C)C)ccc1C21OC(=O)c2ccccc21 [VS, (H--L--Val--Ser)2 Rho 110.2TFA]	3.81	8.27	19.61
